Reference: the CheMixHub ionic liquid set
± gives the uncertainty stated by the source.

Test: xn = mol fraction of the nth substance listed

CCCCCCCCCCCCCC[P+](CCCCCC)(CCCCCC)CCCCCC.[c-]1c[nH]nn1 + CCCCCC[n+]1ccn(C)c1.O=S(=O)([N-]S(=O)(=O)C(F)(F)F)C(F)(F)F
viscosity [mPa·s], 100 kPa
Details | 278.15 K | 283.15 K | 288.15 K | 293.15 K | 298.15 K | 303.15 K | 308.15 K | 313.15 K | 318.15 K | 323.15 K
x2 = 0.135 | 2499 ± 350 | 1630 ± 220 | 1087 ± 140 | 744 ± 97 | 527 ± 68 | 382 ± 48 | 284 ± 35 | 215 ± 27 | 166 ± 20 | 131 ± 16
x2 = 0.3 | 2448 ± 340 | 1593 ± 220 | 1061 ± 140 | 725 ± 95 | 511 ± 66 | 369 ± 47 | 274 ± 34 | 206 ± 25 | 159 ± 19 | 125 ± 15
x2 = 0.348 | 2031 ± 280 | 1329 ± 180 | 890 ± 120 | 614 ± 80 | 437 ± 56 | 317 ± 40 | 236 ± 29 | 180 ± 22 | 139 ± 17 | 109 ± 13
x2 = 0.45 | 1597 ± 220 | 1057 ± 140 | 717 ± 94 | 498 ± 64 | 358 ± 45 | 262 ± 33 | 197 ± 24 | 151 ± 18 | 118 ± 14 | 94 ± 11
x2 = 0.58 | 1211 ± 160 | 820 ± 110 | 567 ± 73 | 402 ± 51 | 294 ± 37 | 219 ± 27 | 168 ± 21 | 131 ± 16 | 104 ± 13 | 84 ± 10
x2 = 0.698 | 755 ± 99 | 522 ± 67 | 369 ± 47 | 268 ± 33 | 200 ± 25 | 152 ± 19 | 119 ± 14 | 94 ± 11 | 76 ± 9 | 62 ± 8
x2 = 0.849 | 417 ± 53 | 295 ± 37 | 214 ± 27 | 159 ± 20 | 122 ± 15 | 96 ± 12 | 77 ± 9 | 62 ± 7 | 51 ± 6 | –

CCCC[N+](CCCC)(CCCC)CCCC.[Cl-] + N[C@@H](CO)C(=O)O
101 kPa
Details | electrical conductivity, 313.15 K [S/m] | electrical conductivity, 323.15 K [S/m] | electrical conductivity, 333.15 K [S/m] | electrical conductivity, 343.15 K [S/m] | electrical conductivity, 353.15 K [S/m] | viscosity, 313.15 K [mPa·s] | viscosity, 323.15 K [mPa·s] | viscosity, 333.15 K [mPa·s] | viscosity, 343.15 K [mPa·s] | viscosity, 353.15 K [mPa·s]
x2 = 0.09091 | 0.024 ± 0.001 | 0.035 ± 0.001 | 0.06 ± 0.001 | 0.09 ± 0.001 | 0.13 ± 0.0013 | 1110 ± 350 | 490 ± 120 | 260 ± 47 | 141 ± 20 | 86 ± 10
x2 = 0.1 | 0.0298 ± 0.001 | 0.0451 ± 0.001 | 0.0631 ± 0.001 | 0.093 ± 0.001 | 0.136 ± 0.0014 | 1220 ± 390 | 600 ± 150 | 297 ± 57 | 158 ± 23 | 97 ± 11
x2 = 0.1111 | 0.0102 ± 0.001 | 0.0181 ± 0.001 | 0.0425 ± 0.001 | 0.0933 ± 0.001 | 0.136 ± 0.0014 | 1000 ± 300 | 480 ± 110 | 237 ± 42 | 135 ± 18 | 83 ± 9

CCCCCCCCCC[N+](CC)(CC)CCCCCCCCCC.[Br-] + O
electrical conductivity [S/m]
Details | 290.55 K | 290.75 K | 290.85 K | 292.05 K | 301.55 K | 303.15 K | 304.55 K | 306.65 K | 311.65 K
100 kPa, x1 = 1.08e-06 | – | – | – | – | – | 0.0029 ± 0.0012 | – | – | –
101 kPa, x1 = 0.0004187 | 0.031 ± 0.013 | 0.033 ± 0.013 | 0.034 ± 0.014 | 0.053 ± 0.022 | 0.079 ± 0.032 | – | 0.082 ± 0.033 | 0.084 ± 0.034 | 0.089 ± 0.036

COS(=O)(=O)[O-].Cn1cc[n+](C)c1 + CCOCCO
viscosity [mPa·s], 101 kPa
Details | x1 = 0.0009004 | x1 = 0.002248 | x1 = 0.003592 | x1 = 0.004932 | x1 = 0.006269 | x1 = 0.007602
293.15 K | 2.1 ± 0.026 | 2.12 ± 0.027 | 2.14 ± 0.026 | 2.16 ± 0.027 | 2.18 ± 0.026 | 2.21 ± 0.026
303.15 K | 1.64 ± 0.024 | 1.66 ± 0.024 | 1.68 ± 0.024 | 1.71 ± 0.024 | 1.73 ± 0.024 | 1.75 ± 0.024
313.15 K | 1.27 ± 0.023 | 1.29 ± 0.023 | 1.32 ± 0.023 | 1.34 ± 0.023 | 1.37 ± 0.023 | 1.39 ± 0.023

C[N+]1(CCOCCOCC[N+]2(C)CCCC2)CCCC1.O=S(=O)([N-]S(=O)(=O)C(F)(F)F)C(F)(F)F.O=S(=O)([N-]S(=O)(=O)C(F)(F)F)C(F)(F)F + CC[n+]1ccn(C)c1.O=S(=O)([N-]S(=O)(=O)C(F)(F)F)C(F)(F)F + O=S(=O)([N-]S(=O)(=O)C(F)(F)F)C(F)(F)F.[Li+]
100 kPa, x1 = 0.2689, x2 = 0.5819
Details | electrical conductivity [S/m]
298 K | 0.282 ± 0.011
303 K | 0.341 ± 0.014
313 K | 0.451 ± 0.018
323 K | 0.63 ± 0.03
333 K | 0.82 ± 0.03
343 K | 1.02 ± 0.041

CS(C)=O + CC(=O)[O-].CC[NH+](CC)CC
101 kPa, x1 = 1
Details | viscosity [mPa·s]
298.15 K | 1.99 ± 0.06
303.15 K | 1.79 ± 0.05
308.15 K | 1.65 ± 0.05

CCCCC[N+](CCCCC)(CCCCC)CCCCC.O=[N+]([O-])[O-] + CCCCCCCCCCCC[N+](C)(C)C.[Br-] + O
viscosity [mPa·s], 100 kPa
Details | x2 = 5.424e-05, x1 = 0.0001802 | x2 = 0.0001085, x1 = 0.0001801 | x2 = 0.0001627, x1 = 0.0001801 | x2 = 0.0002169, x1 = 0.0001801 | x2 = 0.0002712, x1 = 0.0001801 | x2 = 0.0003254, x1 = 0.0001801 | x2 = 0.0003796, x1 = 0.0001801 | x2 = 0.0004338, x1 = 0.0001801 | x2 = 0.000488, x1 = 0.0001801 | x2 = 0.0005422, x1 = 0.0001801
293.15 K | 1.045 ± 0.029 | 1.046 ± 0.029 | 1.048 ± 0.029 | 1.049 ± 0.029 | 1.05 ± 0.029 | 1.051 ± 0.029 | 1.052 ± 0.029 | 1.052 ± 0.029 | 1.052 ± 0.029 | 1.052 ± 0.029
298.15 K | 0.929 ± 0.029 | 0.931 ± 0.029 | 0.932 ± 0.029 | 0.933 ± 0.029 | 0.933 ± 0.029 | 0.934 ± 0.029 | 0.934 ± 0.029 | 0.934 ± 0.029 | 0.935 ± 0.029 | 0.935 ± 0.029
303.15 K | 0.825 ± 0.028 | 0.825 ± 0.028 | 0.825 ± 0.028 | 0.825 ± 0.028 | 0.826 ± 0.028 | 0.826 ± 0.028 | 0.827 ± 0.028 | 0.827 ± 0.028 | 0.827 ± 0.028 | 0.828 ± 0.028
308.15 K | 0.735 ± 0.028 | 0.736 ± 0.028 | 0.736 ± 0.028 | 0.736 ± 0.028 | 0.736 ± 0.028 | 0.737 ± 0.028 | 0.737 ± 0.028 | 0.738 ± 0.028 | 0.739 ± 0.028 | 0.739 ± 0.028
313.15 K | 0.668 ± 0.028 | 0.668 ± 0.028 | 0.669 ± 0.028 | 0.669 ± 0.028 | 0.669 ± 0.028 | 0.67 ± 0.028 | 0.67 ± 0.028 | 0.67 ± 0.028 | 0.671 ± 0.028 | 0.671 ± 0.028
318.15 K | 0.62 ± 0.027 | 0.621 ± 0.027 | 0.621 ± 0.027 | 0.622 ± 0.027 | 0.622 ± 0.027 | 0.622 ± 0.027 | 0.622 ± 0.027 | 0.622 ± 0.027 | 0.623 ± 0.027 | 0.623 ± 0.027

CC[n+]1ccn(C)c1.[Cl-] + CC[n+]1ccn(C)c1.F[B-](F)(F)F
Details | viscosity [mPa·s]
293 K, 101 kPa, x1 = 0.2627 | 92.4 ± 3.8

CC[n+]1ccn(C)c1C.F[B-](F)(F)F + CO
101.3 kPa
Details | viscosity [mPa·s]
293.15 K, x1 = 0.1313 | 1.92 ± 0.16
298.15 K, x1 = 0.09153 | 1.35 ± 0.11
298.15 K, x1 = 0.2607 | 3.98 ± 0.34
303.15 K, x1 = 0.03641 | 0.859 ± 0.073
303.15 K, x1 = 0.1313 | 1.64 ± 0.14
308.15 K, x1 = 0.06083 | 1.022 ± 0.086
308.15 K, x1 = 0.09153 | 1.167 ± 0.099
308.15 K, x1 = 0.1313 | 1.51 ± 0.13
313.15 K, x1 = 0.1848 | 1.92 ± 0.16
318.15 K, x1 = 0.3768 | 5.52 ± 0.47
323.15 K, x1 = 0.03641 | 0.664 ± 0.056
323.15 K, x1 = 0.09153 | 0.947 ± 0.08
323.15 K, x1 = 0.1313 | 1.21 ± 0.1
328.15 K, x1 = 0.09153 | 0.874 ± 0.074
328.15 K, x1 = 0.1313 | 1.132 ± 0.096
328.15 K, x1 = 0.3768 | 4.55 ± 0.39
333.15 K, x1 = 0.1313 | 1.065 ± 0.09
333.15 K, x1 = 0.1848 | 1.41 ± 0.12
